According to article PMC9745799, “Polymyxin Stereochemistry and Its Role in Antibacterial Activity and Outer Membrane Disruption” (ACS Infectious Diseases, 2022):
≈ marks a conversion by molar mass, not a printed value. Where “and” joins values, the source holds several entries; their conditions need not be identical. Identical values can stand only once. Like-named read-outs stand apart in the source and are kept apart here. Positions of bridges follow the written chain, without caps; N, C: chain ends. Non-standard residues stand in square brackets, D forms with d. Residues, ends and D or L forms follow the SMILES beside them. *: point of attachment. dDab = NCC[C@@H](N)C(=O)O; Heptanoyl = CCCCCCC(=O)*; Dab = NCC[C@H](N)C(=O)O

Legend:
[1] = test system: polymyxin-sensitive E. coli ATCC 25922; experiment: microbe, parasite or virus in culture; format: cell-based
Method: (§1) Selected Gram-negative bacterial strains were taken from glycerol stocks and grown overnight on blood agar. A single colony was inoculated in TSB broth at 37 °C until an optical density of 0.5 at 600 nm (OD600) was reached. The bacterial suspension was diluted in freshly prepared CAMHB to 10^6 CFU/mL. Compounds were diluted along the plate, using 25 μL of CAMHB for each dilution. Antibiotic concentrations were prepared separately in a multiwell reservoir, including a control without antibiotic. Of each antibiotic stock, 25 μL was added to three columns to obtain triplicates for every condition. To each 50 μL containing well was then added 50 μL of the 10^6 CFU/mL bacterial suspension, and the plates were sealed with breathable seals. After incubation for 18 h at 37 °C while shaking, the seals were removed and the density of the bacterial suspensions was measured at 600 nm (OD600) using a Tecan Spark plate reader. The OD600 values were transformed to a 2D gradient with the negative control as the minimum and the positive control as the maximum. The FICI was calculated using the following equation: [drawing 1] with MSCant and MSCcomp indicating the optimal synergistic concentration of antibiotic and compound and MICant and MICcomp, the corresponding MICs of the individual compounds. An FICI ≤ 0.5 indicates synergy.[48]

[2] = test system: E. coli ATCC 25922 (smooth LPS); experiment: NPN uptake assay (outer membrane disruption); format: cell-based; details: NPN fluorescence after 1 h at RT, 5 mM HEPES pH 7.2 + 20 mM glucose, triplicates, result in words
Method: (§2) Bacteria were taken from glycerol stocks and grown in TSB overnight. Cultures were diluted either 50 or 100 times in Lysogeny Broth (LB) and grown at 37 °C to an OD600 of 0.5. Test compounds were prepared in HEPES buffer (5 mM, pH 7.2 + 20 mM glucose) and serially diluted (25 μL per well) on 1/2 the area of black 96-well plates with a transparent bottom. N-Phenyl-1-naphthylamine (NPN) was dissolved in acetone (0.5 mM) and diluted to 40 μM in HEPES buffer (5 mM, pH 7.2 + 20 mM glucose). 25 μL of the NPN solution was added to each well. The bacterial suspension was spin down (1000g, 10 min), and the remaining cell pellet was resuspended in half the original volume of HEPES buffer (5 mM, pH 7.2 + 20 mM glucose). 50 μL of bacterial suspension was added to each well. NPN fluorescence was measured after 1 h of incubation at RT with λex 355 ± 20 nm and λem 420 ± 20 nm. The measured fluorescence signal was corrected for NPN fluorescence in the absence of compounds (bacteria in buffer + NPN) and presented as relative fluorescence units (RFUs).

[3] = test system: E. coli BW25113 (rough LPS); experiment: NPN uptake assay (outer membrane disruption); format: cell-based; details: NPN fluorescence after 1 h at RT, 5 mM HEPES pH 7.2 + 20 mM glucose, triplicates, result in words
Method: as §2

[4] = test system: LPS from E. coli (O55:B5); experiment: Isothermal titration calorimetry (ITC), LPS binding; details: compound (1 mM) into LPS (20 µM), 20 mM HEPES pH 7, 37 °C, mean and SD of three experiments; for ΔG, fitted parameter for single site binding / ΔH, fitted parameter for single site binding / Kd: one-site model; for Kd: read-out: KD, fitted parameter for single site binding
Method: Stock solutions of LPS (10 mg/mL, 0.5 mM) were prepared in 20 mM HEPES at pH 7 by suspension, sonication, and temperature cycling between 4 and 60 °C and stored overnight prior to use. LPS from E. coli (O55:B5) was used. Lipopeptide solutions (1 mM in 20 mM HEPES, pH 7) were titrated into a suspension of LPS (0.020 mM) in the same buffer. Control titrations included the titration of peptide into buffer and buffer into the LPS suspension to determine the corresponding heat of dilution. All binding experiments were performed using a MicroCal PEAQ-ITC Automated microcalorimeter (Malvern Panalytical Ltd., Malvern, UK). The samples were equilibrated to 37 °C prior to measurement. The titrations were conducted at 37 °C under constant stirring at 750 rpm. Each experiment consisted of an initial injection of 0.3 μL followed by 25 separate injections of 1.5 μL into the sample cell of 200 μL. The time between each injection was 180 s, and the measurements were performed with the reference power set at 5 μcal s^–1 and the feedback mode set at “low”. For all calculations performed, an estimated molecular weight of 20 kDa for LPS was applied. The calorimetric data thus obtained were analyzed using MicroCal PEAQ-ITC Analysis Software Version 1.20 (Malvern Panalytical Ltd., Malvern, UK), where the integrated heat signal is corrected for the heat of dilution of the titrant.

[5] = test system: A. baumannii ATCC 19606; format: cell-based
Method: (§3) MICs of compounds were determined following CLSI guidelines using the microbroth dilution method in polypropylene plates. Selected Gram-negative bacterial strains (see Table S2 for strain sources) were taken from glycerol stocks and grown overnight on blood agar. Individual colonies were selected and grown in Tryptic Soy Broth (TSB) to an OD600 of 0.5. Compounds were diluted in Mueller Hinton Broth (MHB) supplemented with Mg^2+ and Ca^2+ at final concentrations of 12 and 20 mg/L, respectively (CAMHB). 50 μL was used for each well, and compounds were assessed in triplicates. Bacterial culture was diluted in CAMHB to 10^6 CFU/mL, yielding 5 × 10^5 CFU/mL upon addition of 50 μL of culture to 50 μL of compound solution. Positive and negative (sterility) controls were present on each plate. Plates were sealed with a semipermeable membrane and incubated for 22 h (A. baumannii) or 18 h (other strains) under shaking at 37 °C.

[6] = test system: E. coli ATCC 25922; format: cell-based
Method: as §3

[7] = test system: E. coli BW25113; format: cell-based
Method: as §3

[8] = test system: E. coli JW3594 (ΔwaaD); format: cell-based; details: truncated LPS, CLSI microbroth dilution, CAMHB, 18 h, 37 °C, triplicate
Method: as §3

[9] = test system: E. coli JW3596 (ΔwaaC); format: cell-based; details: truncated LPS, CLSI microbroth dilution, CAMHB, 18 h, 37 °C, triplicate
Method: as §3

[10] = test system: E. coli mcr-1; format: cell-based; details: CLSI microbroth dilution, CAMHB, 18 h, 37 °C, triplicate
Method: as §3

[11] = test system: K. pneumoniae ATCC 13883; format: cell-based
Method: as §3

[12] = test system: P. aeruginosa 2018-007; format: cell-based
Method: as §3

[13] = test system: P. aeruginosa ATCC 10145; format: cell-based
Method: as §3

[14] = test system: P. aeruginosa ATCC 27853; format: cell-based
Method: as §3

[15] = test system: P. aeruginosa NRZ03961; format: cell-based
Method: as §3

[16] = test system: polymyxin-resistant (mcr-1 positive) E. coli; experiment: microbe, parasite or virus in culture; format: cell-based; details: for FICI: combination with rifampicin, CAMHB, 18 h, 37 °C, OD600, FICI ≤ 0.5 indicates synergy
Method: as §1

[17] = test system: polymyxin-resistant, mcr-1 positive E. coli; experiment: NPN uptake assay (outer membrane disruption); format: cell-based; details: E. coli mcr-1 positive; NPN fluorescence after 1 h at RT, highest concentration tested 32 μg/mL, triplicates; result in words
Method: as §2

[18] = E. coli ATCC 25922, checkerboard, substance alone

## CC(C)C[C@H]1NC(=O)[C@H](Cc2ccccc2)NC(=O)[C@@H](CCN)NC(=O)[C@H](NC(=O)[C@@H](CCN)NC(=O)[C@H](N)[C@H](C)O)CCNC(=O)[C@@H]([C@H](C)O)NC(=O)[C@@H](CCN)NC(=O)[C@@H](CCN)NC1=O [ent-PMBN] (H-[dT][dDab][dDab][dDab]F[dL][dDab][dDab][dT]; lactam 3-C)
[1]; ATCC 25922, 18 h
  MIC alone: ≥ 256 µg/mL
[2]
  OM disruption (NPN uptake): weak OM disruption
[3]
  OM disruption (NPN uptake): higher degree of OM perturbation
[4]
  ΔΔH, maximum enthalpy observed after subtraction of dilution control: -4.91 ± 0.03 kcal/mol
  ΔG, fitted parameter for single site binding: -7.69 ± 0.06 kcal/mol
  ΔH, fitted parameter for single site binding: -5.2 ± 0.03 kcal/mol
  Kd: 3.9 ± 0.4 µM

## Polymyxin B sulfate [PmxB (commercial), reference compound]
[5]; A. baumannii ATCC 19606, CLSI microbroth dilution, CAMHB, 22 h, 37 °C, triplicate
  MIC: 0.25 µg/mL
[6]; E. coli ATCC 25922, CLSI microbroth dilution, CAMHB, 18 h, 37 °C, triplicate
  MIC: 1 µg/mL
[7]; E. coli BW25113, CLSI microbroth dilution, CAMHB, 18 h, 37 °C, triplicate
  MIC: 1 µg/mL
[8]
  MIC: 0.06 µg/mL
[9]
  MIC: 0.06 µg/mL
[10]
  MIC: 4 µg/mL
[11]; K. pneumoniae ATCC 13883, CLSI microbroth dilution, CAMHB, 18 h, 37 °C, triplicate
  MIC: 0.25 µg/mL
[12]; P. aeruginosa 2018-007, CLSI microbroth dilution, CAMHB, 18 h, 37 °C, triplicate
  MIC: 2 µg/mL
[13]; P. aeruginosa ATCC 10145, CLSI microbroth dilution, CAMHB, 18 h, 37 °C, triplicate
  MIC: 1 µg/mL
[14]; P. aeruginosa ATCC 27853, CLSI microbroth dilution, CAMHB, 18 h, 37 °C, triplicate
  MIC: 1 µg/mL
[15]; P. aeruginosa NRZ03961, CLSI microbroth dilution, CAMHB, 18 h, 37 °C, triplicate
  MIC: 1 µg/mL

## CC(C)C[C@@H]1NC(=O)[C@@H](Cc2ccccc2)NC(=O)[C@H](CCN)NC(=O)[C@@H](NC(=O)[C@H](CCN)NC(=O)[C@@H](N)[C@@H](C)O)CCNC(=O)[C@H]([C@@H](C)O)NC(=O)[C@H](CCN)NC(=O)[C@H](CCN)NC1=O [PMBN, polymyxin B nonapeptide, reference compound] (H-T[Dab][Dab][Dab][dF]L[Dab][Dab]T; lactam 3-C (inferred); N-terminus assumed)
[16]; E. coli mcr-1, checkerboard
  FICI: ≤ 0.14
[1]; ATCC 25922, 18 h
  MIC alone: ≥ 256 µg/mL
[2]
  OM disruption (NPN uptake): potent OM disruption
[3]
  OM disruption (NPN uptake): potent OM disruption
[4]
  ΔΔH, maximum enthalpy observed after subtraction of dilution control: -7.20 ± 0.19 kcal/mol
  ΔG, fitted parameter for single site binding: -7.24 ± 0.03 kcal/mol
  ΔH, fitted parameter for single site binding: -8.4 ± 0.25 kcal/mol
  Kd: 8 ± 0.4 µM

## CCCCCCC(=O)N[C@@H](CCN)C(=O)N[C@H](C(=O)N[C@@H](CCN)C(=O)N[C@H]1CCNC(=O)[C@H]([C@@H](C)O)NC(=O)[C@H](CCN)NC(=O)[C@H](CCN)NC(=O)[C@H](CC(C)C)NC(=O)[C@@H](Cc2ccccc2)NC(=O)[C@H](CCN)NC1=O)[C@@H](C)O [PmxB4, polymyxin B4] (Heptanoyl-[Dab]T[Dab][Dab][Dab][dF]L[Dab][Dab]T; lactam 4-C)
[5]; ATCC 19606, 22 h
  MIC: 0.5 µg/mL (≈ 0.425 µM)
[6]; ATCC 25922, 18 h
  MIC: 0.25 µg/mL (≈ 0.213 µM)
[7]; BW25113, 18 h
  MIC: 0.5 µg/mL (≈ 0.425 µM)
[8]
  MIC: 0.06 µg/mL (≈ 0.051 µM)
[9]
  MIC: 0.06 µg/mL (≈ 0.051 µM)
[10]
  MIC: 4 µg/mL (≈ 3.4 µM)
[11]; ATCC 13883, 18 h
  MIC: 0.125 µg/mL (≈ 0.106 µM)
[12]; 2018-007, 18 h
  MIC: 0.5 µg/mL (≈ 0.425 µM)
[13]; ATCC 10145, 18 h
  MIC: 0.25 µg/mL (≈ 0.213 µM)
[14]; ATCC 27853, 18 h
  MIC: 0.25 µg/mL (≈ 0.213 µM)
[15]; NRZ03961, 18 h
  MIC: 0.25 µg/mL (≈ 0.213 µM)
[16]; E. coli mcr-1, checkerboard, substance alone
  MIC alone: 8 µg/mL
[16]; E. coli mcr-1, checkerboard
  FICI: 0.16 and 0.163
[1]; ATCC 25922, 18 h
  MIC alone: 1 µg/mL
[1]; [18]
  MIC alone: 2 µg/mL
[2]
  OM disruption (NPN uptake): potent OM disruption
[3]
  OM disruption (NPN uptake): potent OM disruption
[17]
  OM disruption (NPN uptake): most effective OM disruption
[4]
  ΔΔH, maximum enthalpy observed after subtraction of dilution control: -7.86 ± 0.10 kcal/mol

## CO[C@H]1/C=C/O[C@@]2(C)Oc3c(C)c(O)c4c(O)c(c(/C=N/N5CCN(C)CC5)c(O)c4c3C2=O)NC(=O)/C(C)=C\C=C\[C@H](C)[C@H](O)[C@@H](C)[C@@H](O)[C@@H](C)[C@H](OC(C)=O)[C@@H]1C [Rifampicin, rifampicin]
[16]; E. coli mcr-1, rifampicin in combination with PMBN (4 µg/mL)
  MIC in combination (rifampicin): 1 µg/mL
[16]; E. coli mcr-1, rifampicin in combination with PmxB4 (1 µg/mL)
  MIC in combination (rifampicin): 0.3 µg/mL
[16]; E. coli mcr-1, rifampicin in combination with ent-PMBN (32 µg/mL)
  MIC in combination (rifampicin): 2 µg/mL
[16]; E. coli mcr-1, rifampicin in combination with ent-PmxB4 (8 µg/mL)
  MIC in combination (rifampicin): 1 µg/mL
[16]; Escherichia coli, read-out: MIC alone
  MIC: 8 µg/mL
[1]; [18]
  MIC alone: 8 µg/mL
[1]; E. coli ATCC 25922, rifampicin in combination with PMBN (2 µg/mL)
  MIC in combination (rifampicin): 0.1 µg/mL
[1]; E. coli ATCC 25922, rifampicin in combination with PmxB4 (1 µg/mL)
  MIC in combination (rifampicin): 0.5 µg/mL
[1]; E. coli ATCC 25922, rifampicin in combination with ent-PMBN (32 µg/mL)
  MIC in combination (rifampicin): 2 µg/mL
[1]; E. coli ATCC 25922, rifampicin in combination with ent-PmxB4 (8 µg/mL)
  MIC in combination (rifampicin): 0.1 µg/mL
[1]; Escherichia coli, ATCC25922, E. coli ATCC 25922, checkerboard, substance alone
  MIC: 8 µg/mL
